Here are results for 27 molecules from ChEMBL document CHEMBL3991601, “The target landscape of clinical kinase drugs” (Science, 2017).

Calls of active or inactive are those of the source. Rule as the data show it, for most assays here: actives have a measured Kd and inactives only a lower limit.

Experiment [1] addresses T1, MAP kinase-activated protein kinase 5 (Homo sapiens, UniProt Q8IW41).
T1 sequence (Q8IW41 whole entry): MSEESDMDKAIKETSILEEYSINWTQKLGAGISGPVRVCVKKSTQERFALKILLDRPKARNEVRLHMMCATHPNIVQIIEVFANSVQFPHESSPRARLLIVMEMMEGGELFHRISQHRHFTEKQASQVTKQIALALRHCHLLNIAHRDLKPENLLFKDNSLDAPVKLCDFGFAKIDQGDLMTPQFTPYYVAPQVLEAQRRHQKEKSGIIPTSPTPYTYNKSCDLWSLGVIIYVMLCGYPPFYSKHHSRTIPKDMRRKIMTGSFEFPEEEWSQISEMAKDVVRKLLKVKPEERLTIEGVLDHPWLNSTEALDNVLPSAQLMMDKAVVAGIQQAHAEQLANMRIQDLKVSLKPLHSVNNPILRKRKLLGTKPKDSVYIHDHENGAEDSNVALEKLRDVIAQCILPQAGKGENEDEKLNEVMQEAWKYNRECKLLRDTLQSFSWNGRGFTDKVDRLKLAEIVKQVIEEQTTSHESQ

For experiment [2], the target named is T2, Receptor-type tyrosine-protein kinase FLT3 (Homo sapiens, UniProt P36888).
T2 sequence (P36888 whole entry): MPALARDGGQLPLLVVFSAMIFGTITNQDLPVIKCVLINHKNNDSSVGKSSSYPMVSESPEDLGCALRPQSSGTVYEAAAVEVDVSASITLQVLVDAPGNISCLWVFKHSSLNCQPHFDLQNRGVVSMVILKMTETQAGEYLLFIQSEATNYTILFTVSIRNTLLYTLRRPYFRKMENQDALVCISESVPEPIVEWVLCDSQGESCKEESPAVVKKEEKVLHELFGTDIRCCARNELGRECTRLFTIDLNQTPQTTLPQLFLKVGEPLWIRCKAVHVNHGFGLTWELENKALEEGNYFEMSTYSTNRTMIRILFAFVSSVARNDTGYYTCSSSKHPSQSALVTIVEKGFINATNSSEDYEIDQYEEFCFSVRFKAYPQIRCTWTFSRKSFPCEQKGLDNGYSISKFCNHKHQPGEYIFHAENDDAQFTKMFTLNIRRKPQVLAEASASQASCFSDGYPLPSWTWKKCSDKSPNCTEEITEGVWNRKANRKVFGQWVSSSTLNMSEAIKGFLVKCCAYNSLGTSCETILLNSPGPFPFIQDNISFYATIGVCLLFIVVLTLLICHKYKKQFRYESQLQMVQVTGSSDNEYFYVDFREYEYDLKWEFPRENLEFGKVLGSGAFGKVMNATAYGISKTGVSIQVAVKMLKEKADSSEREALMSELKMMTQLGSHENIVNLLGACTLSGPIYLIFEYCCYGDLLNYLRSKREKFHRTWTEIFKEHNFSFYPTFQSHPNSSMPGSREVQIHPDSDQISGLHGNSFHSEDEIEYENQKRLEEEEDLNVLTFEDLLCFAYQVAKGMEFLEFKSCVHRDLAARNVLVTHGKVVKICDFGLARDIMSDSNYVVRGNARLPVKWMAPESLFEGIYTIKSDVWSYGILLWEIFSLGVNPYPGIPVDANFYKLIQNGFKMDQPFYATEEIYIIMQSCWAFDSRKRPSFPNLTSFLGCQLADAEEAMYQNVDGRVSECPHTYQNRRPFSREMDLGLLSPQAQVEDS

Experiment [3] addresses T3, Serine/threonine-protein kinase ICK (Homo sapiens, UniProt Q9UPZ9).
T3 sequence (Q9UPZ9 whole entry): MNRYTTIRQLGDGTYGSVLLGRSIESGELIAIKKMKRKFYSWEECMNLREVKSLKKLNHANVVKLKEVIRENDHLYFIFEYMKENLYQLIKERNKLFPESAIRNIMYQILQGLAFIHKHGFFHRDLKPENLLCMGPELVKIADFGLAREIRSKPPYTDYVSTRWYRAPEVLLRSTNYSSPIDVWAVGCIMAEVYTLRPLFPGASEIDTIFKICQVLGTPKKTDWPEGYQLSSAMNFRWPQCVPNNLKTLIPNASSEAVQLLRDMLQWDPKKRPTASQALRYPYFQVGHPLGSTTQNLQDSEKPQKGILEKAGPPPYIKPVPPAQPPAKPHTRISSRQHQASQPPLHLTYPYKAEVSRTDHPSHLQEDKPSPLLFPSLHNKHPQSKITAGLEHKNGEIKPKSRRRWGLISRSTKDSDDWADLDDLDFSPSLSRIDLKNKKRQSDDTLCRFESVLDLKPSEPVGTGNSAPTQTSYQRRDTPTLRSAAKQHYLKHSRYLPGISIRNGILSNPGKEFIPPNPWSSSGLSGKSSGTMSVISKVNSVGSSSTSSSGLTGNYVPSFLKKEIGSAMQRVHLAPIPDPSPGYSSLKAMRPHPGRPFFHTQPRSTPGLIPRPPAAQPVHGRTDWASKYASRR
Also: in the data inactive means no Kd found up to 30 µM.

As usually defined, the Kd is the constant that tells how readily two partners part at equilibrium. For the molecule `O=C(Nc1nc2cccc(-c3ccc(CN4CCS(=O)(=O)CC4)cc3)n2n1)C1CC1` [FILGOTINIB], the Kd in experiment [1], in experiment [2] and in experiment [3] was > 30 µM (inactive) throughout.
Take `Cc1cccc(-c2nn3c(c2-c2ccnc4ccc(C(N)=O)cc24)CCC3)n1` [GALUNISERTIB]: the Kd in experiment [1], in experiment [2] and in experiment [3] was > 30 µM (inactive) each time.
In the case of `COc1ccc(S(=O)(=O)N(C(C)=O)c2ccccc2/C=C/c2cc[n+]([O-])cc2)cc1` [HMN-214], the Kd in experiment [1], in experiment [2] and in experiment [3] was > 30 µM (inactive) throughout.
`CNC(=O)c1cccc2cc(Oc3ccnc4cc(OCC5(N)CC5)c(OC)cc34)ccc12` [LUCITANIB]: the Kd in experiment [1], in experiment [2] and in experiment [3] was > 30 µM (inactive) throughout.
Take `CNC(=O)c1nn(C)c2c1C(C)(C)Cc1cnc(Nc3ccc(N4CCN(C)CC4)cc3)nc1-2` [MILCICLIB]: the Kd was > 30 µM (inactive) in experiment [1], 0.054 µM (active) in experiment [2] and 0.863 µM (active) in experiment [3].
Consider `NC1(c2ccc(-c3nc4ccn5c(=O)[nH]nc5c4cc3-c3ccccc3)cc2)CCC1` [MK-2206], for which the Kd in experiment [1], in experiment [2] and in experiment [3] was > 30 µM (inactive) throughout.
In the case of `Cn1cc(-c2cnc3ccc4ccc(CS(=O)(=O)NCc5ccccn5)cc4c(=O)c3c2)cn1` [MK-8033], the Kd in experiment [1], in experiment [2] and in experiment [3] was > 30 µM (inactive) throughout.
For `FC(F)(F)c1ccc(/C=C/c2nc(COc3ccc(CCCCn4ccnn4)cc3)co2)cc1` [MUBRITINIB], the Kd in experiment [1], in experiment [2] and in experiment [3] was > 30 µM (inactive) throughout.
On to `COc1ncc(-c2ccc3nccc(-c4ccnnc4)c3c2)cc1NS(=O)(=O)c1ccc(F)cc1F` [OMIPALISIB], for which the Kd in experiment [1], in experiment [2] and in experiment [3] was > 30 µM (inactive) each time.
For `CCOc1cc2ncc(C#N)c(Nc3ccc(F)c(Cl)c3)c2cc1NC(=O)/C=C/CN(C)C` [PELITINIB], the Kd in experiment [1], in experiment [2] and in experiment [3] was > 30 µM (inactive) each time.
For the molecule `CCCCCCCCCCCCCCCCCCOP(=O)([O-])OC1CC[N+](C)(C)CC1` [PERIFOSINE], the Kd in experiment [1], in experiment [2] and in experiment [3] was > 30 µM (inactive) in each case.
For the molecule `Cc1nc(Nc2n[nH]c3c2CN(C(=O)N[C@H](CN(C)C)c2ccccc2)C3(C)C)c2sccc2n1` [PF-03758309], the figures for the Kd in experiment [1], in experiment [2] and in experiment [3] were > 30 µM (inactive), 1.44 µM (active) and 0.237 µM, respectively.
On the same counts, the results for `Cc1cnc(NC(=O)Nc2cc(Br)c(C)cc2OC[C@@H]2CNCCO2)cn1` [RABUSERTIB] are > 30 µM (inactive), > 30 µM (inactive) and > 30 µM (inactive).
For `CO[C@H]1C[C@@H]2CC[C@@H](C)[C@@](O)(O2)C(=O)C(=O)N2CCCC[C@H]2C(=O)O[C@H]([C@H](C)C[C@@H]2CC[C@@H](OP(C)(C)=O)[C@H](OC)C2)CC(=O)[C@H](C)/C=C(\C)[C@@H](O)[C@@H](OC)C(=O)[C@H](C)C[C@H](C)/C=C/C=C/C=C/1C` [RIDAFOROLIMUS] the same measures were > 30 µM (inactive), > 30 µM (inactive) and > 30 µM (inactive).
For `N#CC1(c2ccc(NC(=O)c3cccnc3NCc3ccncc3)cc2)CCCC1` [RIVOCERANIB], the Kd in experiment [1], in experiment [2] and in experiment [3] was > 30 µM (inactive) each time.
Turning to `O=c1[nH]ccc2cc(OC3CCNCC3)ccc12` [SAR-407899 FREE BASE], the Kd in experiment [1], in experiment [2] and in experiment [3] was > 30 µM (inactive) in each case.
In the case of `CN1CCN(CCOc2cc(OC3CCOCC3)c3c(Nc4c(Cl)ccc5c4OCO5)ncnc3c2)CC1` [SARACATINIB], the Kd in experiment [1] was > 30 µM (inactive); in experiment [2] it was 0.14 µM; in experiment [3], > 30 µM (inactive).
In the case of `Cn1cc(-c2cnn3c(N)c(Br)c([C@@H]4CCCNC4)nc23)cn1` [SCH-900776], the Kd in experiment [1], in experiment [2] and in experiment [3] was > 30 µM (inactive) throughout.
As for `CO[C@H]1C[C@@H]2CC[C@@H](C)[C@@](O)(O2)C(=O)C(=O)N2CCCC[C@H]2C(=O)O[C@H]([C@H](C)C[C@@H]2CC[C@@H](O)[C@H](OC)C2)CC(=O)[C@H](C)/C=C(\C)[C@@H](O)[C@@H](OC)C(=O)[C@H](C)C[C@H](C)/C=C/C=C/C=C/1C` [SIROLIMUS], the Kd in experiment [1], in experiment [2] and in experiment [3] was > 30 µM (inactive) each time.
Consider `CCS(=O)(=O)c1cccc(-c2cc(C(=O)NC3CCN(C)CC3)c(C)c3[nH]c4ncc(C)cc4c23)c1` [TAK-901], for which the Kd is > 30 µM (inactive) in experiment [1], 0.554 µM in experiment [2] and > 30 µM (inactive) in experiment [3].
In the case of `CO[C@H]1C[C@@H]2CC[C@@H](C)[C@@](O)(O2)C(=O)C(=O)N2CCCC[C@H]2C(=O)O[C@H]([C@H](C)C[C@@H]2CC[C@@H](OC(=O)C(C)(CO)CO)[C@H](OC)C2)CC(=O)[C@H](C)/C=C(\C)[C@@H](O)[C@@H](OC)C(=O)[C@H](C)C[C@H](C)/C=C/C=C/C=C/1C` [TEMSIROLIMUS], the Kd in experiment [1], in experiment [2] and in experiment [3] was > 30 µM (inactive) each time.
Consider `COc1cc2c(Nc3ccc(Cl)c(Cl)c3F)ncnc2cc1OC[C@@H]1C[C@@H]2CN(C)C[C@@H]2C1` [TESEVATINIB], for which the Kd in experiment [1], in experiment [2] and in experiment [3] was > 30 µM (inactive) each time.
Turning to `O=C(Cc1ccc(-c2ccc(OCCN3CCOCC3)cc2)cn1)NCc1ccccc1` [TIRBANIBULIN], the Kd in experiment [1], in experiment [2] and in experiment [3] was > 30 µM (inactive) throughout.
In the case of `O=C1NC(=O)[C@@H](c2cn3c4c(cccc24)CCC3)[C@@H]1c1c[nH]c2ccccc12` [TIVANTINIB], the Kd in experiment [1], in experiment [2] and in experiment [3] was > 30 µM (inactive) in each case.
As for `C[C@@H](NC(=O)c1ncnc(N)c1Cl)c1ncc(C(=O)Nc2cc(C(F)(F)F)c(Cl)cn2)s1` [TOVORAFENIB], the Kd in experiment [1], in experiment [2] and in experiment [3] was > 30 µM (inactive) in each case.
For `Cc1cc(Nc2ncnc3ccc(NC4=NC(C)(C)CO4)cc23)ccc1Oc1ccn2ncnc2c1` [TUCATINIB], the Kd in experiment [1], in experiment [2] and in experiment [3] was > 30 µM (inactive) throughout.
With `CC(C)c1cc(CNc2nc(Nc3cc(C4CC4)[nH]n3)cc(N3CCN(C)CC3)n2)on1` [XL-228], the Kd was > 30 µM (inactive) in experiment [1], 0.005 µM (active) in experiment [2] and > 30 µM (inactive) in experiment [3].
